In patent US20140161915A1, “Solubilization of cucurminoid compounds and products thereof” (priority 2011, published 2014):

Experiments:
DNA = assay: Binding or intercalation to DNA; conditions: heat solubilized
[1] = Curcumin dissolution in water (saturated), centrifuged supernatant read by UV-Vis at 405 nm; format: physicochemical
anti-spectrin / spectrin = assay: Inhibition of binding of commercial polyclonal anti-spectrin to spectrin; conditions: heat-solubilized
[2] = Stability of dissolved curcumin: hydrolysis at alkaline pH and precipitation over time; format: physicochemical; conditions: pressure-dissolved (15 psi, 121° C.) solution
Method: For solutions made at room temperature it is difficult to obtain a clear (i.e., solid-free) supernatant even from careful centrifuging. The samples are far more soluble in alkaline water (e.g., pH 7.6), but when placed in phosphate buffered saline (PBS) and serum-free media at modest alkaline pH (pH 7.2, at 37° C.) the curcuminoids are hydrolyzed substantially completely within 30 minutes.
Even so, UV-Visible spectra and mass specta (from matrix assisted laser desorption […] time of flight mass spectrometry, MALDI-TOF-MS) confirmed that the dissolved curcumin was substantially unchanged by the heat treatment. Heat treatment also appears to increase the solubilization of BDMC but (curiously) not DMC.
(§1) The autoclave cycle was 70 minutes, of which ˜40 minutes represent actual time under pressure.

[3] = system: 4-hydroxy-2-nonenal-mediated oxidative modification of a protein substrate; assay: Inhibition of 4-hydroxy-2-nonenal-mediated oxidative modification of a protein substrate; format: biochemical; conditions: heat-solubilized
[4] = cited from earlier work
[5] = system: anti-Ro60 autoantibodies / Ro60 autoantigen; assay: Inhibition of binding of anti-Ro60 autoantibodies to Ro60 autoantigen; design: species or system human; conditions: heat-solubilized
[6] = Ingestion of aqueous solubilized curcumin by four adult males, reported effects; format: in vivo, human
Method: The study conditions were as follows.
This subject's study was conducted in a completely blind manner: the subject was told nothing about the known or suspected properties but was merely asked to report their observations.

[7] = Curcumin dissolution in water (saturated), centrifuged supernatant read by UV-Vis at 405 nm; format: physicochemical; remark: listed apart in the source
Method: as §1
That mixture was then combined with 47.5 mL of deionized water to make up a 50 mL solution.

[8] = 0.1% Tween-20, room pressure, 100° C. deionized water
[9] = 0.5% Tween-20, 15 psi, 121° C., deionized water
[10] = 2% Tween-20, room pressure, 100° C. deionized water
[11] = 15 psi, 121° C., deionized water, 5 mg/mL present
[12] = 0.1% Tween-20, 15 psi, 121° C., deionized water
[13] = 2% Tween-20, 15 psi, 121° C., deionized water

COc1cc(/C=C/C(=O)CC(=O)/C=C/c2ccc(O)c(OC)c2)ccc1O [curcumin, 1,7-bis[4-hydroxy-3-methoxyphenyl]-1,6-heptadiene-3,5-dione]
Intercalation into or binding to DNA (DNA): does not intercalate into or otherwise bind to DNA | Dissolution (Approximate) Mass/mL [1, 8]: 22.5 µg/mL | Dissolution (Approximate) Molarity [1, 8]: 0.061 mM | Dissolution (Approximate) Mass/mL [1, 9]: 278.1 µg/mL | Dissolution (Approximate) Mass/mL ([1]; 0.5% Tween-20, room pressure, 100° C. deionized water): 77.44 µg/mL | Dissolution (Approximate) Mass/mL [1, 10]: 443.52 µg/mL | Dissolution (Approximate) Molarity [1, 10]: 1.2 mM | Dissolution (Approximate) Molarity [1, 11]: 0.68 mM | Inhibition of binding of commercial polyclonal anti-spectrin to spectrin (anti-spectrin / spectrin): 50% | Precipitation or turbidity of the solution over time [2]: did not precipitate out or cause the solution to become cloudy or turbid | Reduction in pristine curcumin ([2]; alkaline pH for 72 hours): 32% | Inhibition of 4-hydroxy-2-nonenal-mediated oxidative modification of a protein substrate [3]: 80% | Increase in solubility by heat treatment over unheated ([4]; Kurien et al. (2007): boiling deionized water): 12 fold | Solubility of curcumin itself ([4]; deionized water at room temperature, dissolved material is DMC and BDMC): insoluble | Inhibition of binding of anti-Ro60 autoantibodies to Ro60 autoantigen ([5]; Sjögren's syndrome sera): up to 43% | Inhibition of binding of anti-Ro60 autoantibodies to Ro60 autoantigen ([5]; systemic lupus erythematosus (SLE) sera): up to 52% | Duration of relief from metatarsal arthritic inflammation ([6]; Subject #3, about 100 kg, 20 mL of 350 micromolar sample (autoclave, 5% ethanol), ingested): about 48 hours | Effect on mood ([6]; four adult males, 5-20 mL of 150-350 micromolar autoclaved aqueous curcumin, ingested): mood elevating effects | Onset of mood elevating effects ([6]; four adult males, ingested autoclaved aqueous curcumin): almost instantaneously | Dissolution (Approximate) Mass/mL [7, 12]: 44.84 µg/mL | Dissolution (Approximate) Molarity [7, 12]: 0.12 mM | Dissolution (Approximate) Molarity [7, 9]: 0.75 mM | Dissolution (Approximate) Mass/mL [7, 13]: 1556 µg/mL | Dissolution (Approximate) Molarity [7, 13]: 4.2 mM | Increase over curcumin dissolved at ambient temperature ([7]; 15 psi, 121° C., 5% ethanol in deionized water): ~100 fold | Dissolved share of the original amount ([7]; 15 psi, 121° C., 5% ethanol in deionized water, made up to 50 mL): about 12.9% | Dissolved share of the curcumin initially present [7, 11]: 5% | Solubilized share of starting curcumin ([7]; autoclaved in water with 2% of a poly(alkyl ether), 50 mL starting solution): 31%
